Assays:
osteoblasts = assay: RNA sequencing of SB216763-treated osteoblasts; type: cell-based, mouse
Description: The differential expression profiles of SB216763-treated osteoblasts using RNA sequencing was examined. […] These overlapped with 1357 genes identified as low expression when osteoblast vs EC was compared, and a 307-gene cohort with decreased expression in both analyses was identified (FIG. 1, Part G). Gene Ontology (GO) termed these genes enriched for the signal pathway of osteoblastic differentiation and bone development (FIG. 1, Part G). Similarly, 519 genes with increased expression after SB21673 treatment were found (FIG. 1, Part H).
For RNA sequencing, osteoblasts were treated with 10 μM SB216763 for 14 days, and RNA was isolated for library preparation. The sequencing was conducted by the Pathology Research Services at UCLA. Spliced Transcripts Alignment to Reference (STAR) was used for the read alignment. Cufflinks was used to assemble transcripts, estimate their abundances, and assess the differential expression. GO analysis and pathway enrichment of the identified genes were performed.

[1] = system: mouse osteoblast line MC3T3; assay: Real-time PCR of osteogenic, endothelial and other lineage markers in treated mouse osteoblasts; type: cell-based
Description: A high throughput screen was generated by modifying the mouse osteoblast line MC3T3. Fetal liver kinase 1 (Flk1) promoter-driven enhanced green fluorescent protein (eGFP) was introduced into these osteoblasts. […] Several libraries of small molecules, including a FDA-approved drug library, a UCLA in-house collection, and a custom set of compounds were screened. These libraries contained more than 22,000 small molecules ranging from natural products to synthesized compounds. […] Using arrange of dose (1-10 μM), it is shown that the reduction of the osteogenic markers Cbfa1, osterix and osteocalcin and the induction of the endothelial markers CD34, VE-cadherin, CD31 and eNOS occurred in a dose-dependent manner (FIG. 1, Part E). Osteoblasts were then treated with 10 μM SB216763 and examined the time-course expression of these osteogenic and endothelial markers. […] To determine if a mesenchymal stage or emerging stemness is required for SB216763 to induce osteoblastic-endothelial transdifferentiation, mesenchymal and stem cell markers were examined and found no induction in the SB216763-treated cells (FIG. 9, Part E). It was further determined the specificity of endothelial differentiation by closely examining other vascular lineage markers including smooth muscle cells (SMCs), pericytes, and fibroblasts by using real-time PCR. In addition, no-vascular lineages, such as cardiac, neuronal, hepatic, pulmonary, renal, hematopoietic and adipogenic lineages were examined. […] Because GSK3 is important in glucose metabolism, the expression of genes related to glucose metabolism was determined in the SB216763-treated osteoblasts, such as casein kinase 2, glucose transporter 4, and insulin receptor substrates 1 and 2.
Real-time PCR analysis was performed as previously described. Glyceraldehyde 3-phosphate dehydrogenase (GAPDH) was used as a control gene. Primers and probes for mouse and human Cbfa1, ostrix, osteocalcin, CD34, VE-cadherin, CD31, eNOS, SMAD1, and β-catenin, were obtained from Applied Biosystems as part of Tagman® Gene Expression Assays.

GFP+CD31+ aortic cells = assay: Hindlimb ischemia model with GFP+CD31+ aortic cells of treated mice; type: in vivo, mouse; conditions: mice transplanted with GFP+CD31+ aortic cells of treated group
Experimental: The capacity of GFP+CD31+ aortic cells for vascular repair was examined by using hindlimb ischemia model. […] The murine model of hindlimb ischemia was performed as previously described. A 10 mm long incision of the skin was made towards the medial thigh. The femoral artery was exposed and separated from femoral vein and nerve. Silk sutures were used to tie the proximal and the distal end of femoral artery with double knots. The cells (5×10^5) were transplanted into the surgical area and the incision was closed. Laser Doppler perfusion imaging was used to monitor the blood flow at different time points. Histology and immunostaining were used to examine the vascularization 2 weeks after transplantation.

ectopic bone formation = assay: Ectopic bone formation in vivo after transplantation of treated cells; set-up: species or system mouse
Experimental: To assess the functional capacity of SB216763-treated osteoblasts, they were treated with osteogenic induction media in vitro. […] A transplantation experiment was then performed to examine the capacity for bone formation using a well-established bone formation assay in vivo. This assay was adapted and eGFP positive cells were used, which were isolated from SB216763-treated Flk1-eGFP osteoblasts (FIG. 2, Part A).
The cells were then subjected to osteogenic induction media. […] Cells was transplanted into nude mice to test ectopic bone formation.
MicroCT imaging was performed at the Crump Imaging Center at UCLA. All the samples were scanned on a high-resolution, volumetric microCT scanner (CT125). The image data were acquired with the following parameters: 10 μm isotropic voxel resolution; 200 ms exposure time; 2,000 views and 5 frames per view. The microCT-generated DICOM files were used to analyze the samples and to create volume renderings of the regions of interest. The raw data files were viewed using the MicroView 3-D volume viewer and analysis tool (GE Healthcare) and AltaViewer™ Software. Additionally, images of the samples were generated using SCIRun (Scientific Computing and Imaging Institute).
All the surgeries were performed on a heated pad with a connection to a continuous flow of isoflurane. Ectopic bone formation was performed as previously described: 5×10^5 cells were mixed with 40 mg hydroxyapatite/tricalcium phosphate power (SALVIN™, ORASTRUCT-0.5 CC) and incubated in a 1 ml syringe at 37° C. in 5% CO2 overnight. After disinfection with 70% ethanol, a skin incision was made on the back of mouse. A subcutaneous pouch was formed by blunt dissection. The mixture of cells and hydroxyapatite/tricalcium phosphate was transplanted into the pouch and the incision was closed. The implants were examined by microCT imaging and histology 12 weeks after transplantation.

[2] = system: mouse osteoblast line MC3T3; assay: Flow cytometric analysis of SB216763-treated osteoblasts with anti-CD31 and anti-VE-cadherin antibodies; type: cell-based
Description: A high throughput screen was generated by modifying the mouse osteoblast line MC3T3. Fetal liver kinase 1 (Flk1) promoter-driven enhanced green fluorescent protein (eGFP) was introduced into these osteoblasts. […] Several libraries of small molecules, including a FDA-approved drug library, a UCLA in-house collection, and a custom set of compounds were screened. These libraries contained more than 22,000 small molecules ranging from natural products to synthesized compounds. […] Using arrange of dose (1-10 μM), it is shown that the reduction of the osteogenic markers Cbfa1, osterix and osteocalcin and the induction of the endothelial markers CD34, VE-cadherin, CD31 and eNOS occurred in a dose-dependent manner (FIG. 1, Part E). Osteoblasts were then treated with 10 μM SB216763 and examined the time-course expression of these osteogenic and endothelial markers. […] It was further determined the specificity of endothelial differentiation by closely examining other vascular lineage markers including smooth muscle cells (SMCs), pericytes, and fibroblasts by using real-time PCR. […] Because GSK3 is important in glucose metabolism, the expression of genes related to glucose metabolism was determined in the SB216763-treated osteoblasts, such as casein kinase 2, glucose transporter 4, and insulin receptor substrates 1 and 2. […]

[3] = 4-fold differential threshold level
[4] = dose range 1-10 μM, dose-dependent manner

- expression of genes related to glucose metabolism (casein kinase 2, glucose transporter 4, insulin receptor substrates 1 and 2) ([1]; treated osteoblasts): No changes were detected
SMILES: Cn1cc(C2=C(c3ccc(Cl)cc3Cl)C(=O)NC2=O)c2ccccc21 [SB216763]
- transcript profile (osteoblasts; 10 μM for 14 days): increased the similarities between the treated osteoblasts and ECs
- cohort with decreased expression in both analyses (overlap with osteoblast vs EC low expression genes) (osteoblasts; [3]): 307 gene
- cohort with increased expression in both analyses (overlap with EC vs osteoblast high expression genes) (osteoblasts; [3]): 235 genes
- genes decreased in expression (osteoblasts; [3]): 827 genes
- genes with increased expression (osteoblasts; [3]): 519 genes
- time-course expression of osteogenic and endothelial markers ([1]; 10 μM): a reduction of osteogenic markers preceded the induction of the endothelial markers
- expression of endothelial markers CD34, VE-cadherin, CD31 and eNOS [1, 4]: induction
- expression of osteogenic markers Cbfa1, osterix and osteocalcin [1, 4]: reduction
- other vascular and non-vascular lineage markers (SMC, pericyte, fibroblast, cardiac, neuronal, hepatic, pulmonary, renal, hematopoietic, adipogenic) ([1]; real-time PCR): No changes were found
- mesenchymal and stem cell markers ([1]; treated cells): no induction
- limb blood flow, Laser Doppler perfusion imaging (GFP+CD31+ aortic cells): higher limb blood flow
- vascular density, histology (GFP+CD31+ aortic cells): increase in vascular density
- osteocytes in implants, histology and immunostaining (ectopic bone formation; SB216763-treated cells with SMAD1 overexpression or knockdown of β-catenin): presence of osteocytes
- osteocytes in implants, histology and immunostaining (ectopic bone formation; implants with eGFP positive cells from treated osteoblasts): lack of osteocytes
- ectopic bone by microCT (ectopic bone formation; implants with eGFP positive cells from treated osteoblasts vs osteoblast controls): smaller size of ectopic bone, less trabecular formation and less bone volume
- treated osteoblasts expressing the endothelial markers CD31 and VE-cadherin [2]: more than 85%
